pIC50: −log10 of the molar value. A value given as a limit tells only on which side of the number the result lay.

What all share (type): biochemical
The target of experiment [1] is JAK2 (Homo sapiens (Human), UniProt O60674). Briefly: Z'-LYTE enzymatic activity detection, JAK2. Conditions: test compound 30 nM; for inhibition at 0.03 µM: read-out: JAK2 % inhibitory rate @30 nM. Put shortly:
(§1)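 GST-tagged human recombinant kinases with Z′-LYTE peptides (Tyr6 for JAK1, Tyr4 for JAK2 and JAK3), ATP from kit, reacted 1 h at room temperature; development 1 h, ratio 445/520 nm at 400 nm excitation gives phosphorylation. Inhibition vs solvent control at 30 nM (JAK2, JAK3) or 300 nM (JAK1); tofacitinib as positive control.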

Experiment [2] addresses T1, JAK1 (Homo sapiens (Human), UniProt P23458). Briefly: Z'-LYTE enzymatic activity detection, JAK1. As to conditions: test compound 300 nM; for inhibition at 0.3 µM: read-out: JAK1 % inhibitory rate @300 nM. Put shortly:
as §1
Target sequence in this assay (P23458 whole entry): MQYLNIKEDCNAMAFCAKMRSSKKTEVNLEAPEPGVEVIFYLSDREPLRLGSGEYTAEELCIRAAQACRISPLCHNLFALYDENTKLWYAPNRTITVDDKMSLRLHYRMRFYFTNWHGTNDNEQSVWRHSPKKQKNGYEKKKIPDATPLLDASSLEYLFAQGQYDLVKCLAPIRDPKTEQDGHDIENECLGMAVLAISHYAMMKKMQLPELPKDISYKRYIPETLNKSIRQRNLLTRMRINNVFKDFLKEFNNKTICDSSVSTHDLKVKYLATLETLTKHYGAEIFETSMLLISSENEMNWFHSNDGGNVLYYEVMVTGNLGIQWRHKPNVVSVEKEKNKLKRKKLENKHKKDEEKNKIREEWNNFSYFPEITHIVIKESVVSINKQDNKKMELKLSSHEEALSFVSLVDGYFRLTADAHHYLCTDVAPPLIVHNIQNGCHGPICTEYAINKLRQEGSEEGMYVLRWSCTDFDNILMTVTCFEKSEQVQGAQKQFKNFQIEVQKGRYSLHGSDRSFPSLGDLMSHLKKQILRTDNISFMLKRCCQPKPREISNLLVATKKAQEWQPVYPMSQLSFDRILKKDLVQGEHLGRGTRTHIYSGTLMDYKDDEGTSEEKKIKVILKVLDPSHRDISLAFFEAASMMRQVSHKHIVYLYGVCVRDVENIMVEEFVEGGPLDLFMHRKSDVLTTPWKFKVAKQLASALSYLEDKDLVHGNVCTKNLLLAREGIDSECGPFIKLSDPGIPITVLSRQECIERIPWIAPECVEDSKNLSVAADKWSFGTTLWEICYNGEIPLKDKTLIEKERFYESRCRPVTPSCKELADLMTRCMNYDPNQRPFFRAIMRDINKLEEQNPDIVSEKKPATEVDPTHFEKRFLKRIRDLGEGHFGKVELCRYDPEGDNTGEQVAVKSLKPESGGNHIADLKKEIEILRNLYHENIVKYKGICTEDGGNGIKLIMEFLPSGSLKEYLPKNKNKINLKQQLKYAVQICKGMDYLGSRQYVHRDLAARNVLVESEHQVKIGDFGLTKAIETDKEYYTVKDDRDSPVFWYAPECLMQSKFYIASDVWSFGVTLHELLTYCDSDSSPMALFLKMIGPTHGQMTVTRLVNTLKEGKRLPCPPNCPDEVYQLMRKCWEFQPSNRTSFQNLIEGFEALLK

Experiment [3] deals with ITK (Homo sapiens (Human), UniProt Q08881). Briefly: Eurofins IC50Profiler radiometric kinase assay, ITK. Conditions: 9 semilog concentrations. An excerpt: (§2) A proportion of the compounds of the present invention are subjected to kinase profile screening (KinaseProfiler™)) and enzymatic inhibitory activity (IC50Profiler™)) assay by entrusting Eurofins company (http://www.eurofins.com). Besides the kinases in the JAK family, the kinases that have been screened for their activity also include most Group 3F and Group 4 kinases (ITK, BLK, TBK1, VEGFRs, ERBBs, etc.), and blood system related kinases (Zhang J. et al. 2009, Nat. Rev. Cancer., 9: 28-39). The concentration of the test compound for kinase profile screening is 1 μM, and a gradient of 9 semilog concentration gradients are used to determine IC50. Detection is carried out according to standard procedure of Eurofins Company. Briefly, according to the requirements of different kinase reactions, 0.2 μL test compound (50 μM, dissolved in dimethyl sulfoxide (DMSO)) is added to reaction buffer containing specific kinase (the buffer system containing 20 mM MOPS, 1 mM EDTA, 0.01% Brij-35, 5% Glycerol, 0.1% β-mercaptoethanol, 1 mg/mL BSA, or 50 mM TRIS, 0.1 mM EGTA, 0.1 mM Na3VO4, 0.1% β-mercaptoethanol, 1 mg/mL BSA, based on the type of kinase used). Subsequently, a kinase specific substrate at a final concentration of 50 μM (specific substrate used for specific kinase), 10 mM Mg Acetate and isotope-labeled γ-^33P ATP (radio-activity of about 500 cpm/pmol) are sequentially added to a total volume of 10 μL for the reaction system. After incubation at room temperature for 40 min, the reaction is terminated by adding 3% phosphoric acid solution. The mixture is then transferred to a filter-type low temperature spray dryer (P30 filtermat), and washed by 75 mM phosphoric acid solution for 3 times and by methanol once. After drying, radio-activity is detected. For specific procedure, see the standard procedure provided by Eurofins Company: http://www.eurofins.com/media/9724077/kinaseprofiler_assay_protocol_guide_eurofins_v64.pdf).
ITK, sequence (Q08881 whole entry, species assumed): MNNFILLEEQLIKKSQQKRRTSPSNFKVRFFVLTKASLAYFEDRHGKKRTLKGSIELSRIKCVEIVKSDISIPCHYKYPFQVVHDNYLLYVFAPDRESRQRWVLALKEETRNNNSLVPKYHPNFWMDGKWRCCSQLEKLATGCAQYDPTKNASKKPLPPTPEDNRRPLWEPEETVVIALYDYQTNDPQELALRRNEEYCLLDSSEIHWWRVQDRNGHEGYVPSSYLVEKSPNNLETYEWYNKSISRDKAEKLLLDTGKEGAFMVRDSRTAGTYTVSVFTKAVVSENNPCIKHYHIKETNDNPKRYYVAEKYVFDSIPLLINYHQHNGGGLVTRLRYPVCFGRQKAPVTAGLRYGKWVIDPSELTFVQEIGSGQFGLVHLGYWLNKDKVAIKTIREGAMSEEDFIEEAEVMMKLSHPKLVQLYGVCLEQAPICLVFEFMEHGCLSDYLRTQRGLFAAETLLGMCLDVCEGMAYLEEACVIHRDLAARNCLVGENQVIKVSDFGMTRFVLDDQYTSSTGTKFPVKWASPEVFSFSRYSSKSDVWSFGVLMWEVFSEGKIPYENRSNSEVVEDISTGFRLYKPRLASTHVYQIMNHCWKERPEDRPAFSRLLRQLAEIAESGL

In experiment [4] the target is Flt4 (Homo sapiens (Human), UniProt P35916). Nature of the experiment: Eurofins IC50Profiler radiometric kinase assay, Flt4. As to conditions: 9 semilog concentrations.
Flt4, sequence (P35916 25-1363, species assumed): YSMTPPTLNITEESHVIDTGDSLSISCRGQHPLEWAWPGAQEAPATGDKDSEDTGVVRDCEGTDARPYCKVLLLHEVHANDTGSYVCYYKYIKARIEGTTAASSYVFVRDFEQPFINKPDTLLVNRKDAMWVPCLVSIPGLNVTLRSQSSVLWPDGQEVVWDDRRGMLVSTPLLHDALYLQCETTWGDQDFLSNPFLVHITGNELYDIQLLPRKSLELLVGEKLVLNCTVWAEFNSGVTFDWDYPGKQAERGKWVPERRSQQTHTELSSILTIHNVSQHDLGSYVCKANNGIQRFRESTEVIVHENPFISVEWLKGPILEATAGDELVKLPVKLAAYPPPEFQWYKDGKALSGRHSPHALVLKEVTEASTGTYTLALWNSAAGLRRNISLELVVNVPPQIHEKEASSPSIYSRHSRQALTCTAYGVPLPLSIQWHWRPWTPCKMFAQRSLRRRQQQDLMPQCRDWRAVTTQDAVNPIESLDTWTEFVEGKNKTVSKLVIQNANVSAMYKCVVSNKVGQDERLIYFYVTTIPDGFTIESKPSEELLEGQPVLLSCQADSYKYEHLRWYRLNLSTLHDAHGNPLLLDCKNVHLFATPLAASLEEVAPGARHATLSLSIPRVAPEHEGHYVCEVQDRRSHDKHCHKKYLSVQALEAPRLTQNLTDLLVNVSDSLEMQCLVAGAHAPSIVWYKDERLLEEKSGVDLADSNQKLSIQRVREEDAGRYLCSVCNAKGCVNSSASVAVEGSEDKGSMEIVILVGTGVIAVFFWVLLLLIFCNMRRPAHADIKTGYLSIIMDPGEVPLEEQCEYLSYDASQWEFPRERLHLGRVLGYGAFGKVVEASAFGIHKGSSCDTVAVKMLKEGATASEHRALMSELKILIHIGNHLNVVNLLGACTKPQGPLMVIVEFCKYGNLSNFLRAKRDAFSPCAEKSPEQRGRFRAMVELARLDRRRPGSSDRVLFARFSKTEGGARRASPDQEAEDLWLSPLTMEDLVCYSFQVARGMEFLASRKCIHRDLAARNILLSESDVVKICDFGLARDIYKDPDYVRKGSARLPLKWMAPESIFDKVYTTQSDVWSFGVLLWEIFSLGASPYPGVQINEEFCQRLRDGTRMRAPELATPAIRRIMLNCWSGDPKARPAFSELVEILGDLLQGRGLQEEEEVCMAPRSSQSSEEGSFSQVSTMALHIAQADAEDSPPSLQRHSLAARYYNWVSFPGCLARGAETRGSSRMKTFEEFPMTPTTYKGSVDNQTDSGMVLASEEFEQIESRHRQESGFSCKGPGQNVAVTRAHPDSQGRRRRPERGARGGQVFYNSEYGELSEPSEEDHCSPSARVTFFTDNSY
Excerpt: as §2

Experiment [5] deals with T1, JAK1. Briefly: Eurofins IC50Profiler radiometric kinase assay, JAK1. As to conditions: 9 semilog concentrations.
Excerpt: as §2
Target sequence in this assay (P23458 whole entry, species assumed): as the sequence (P23458 whole entry) above

JAK2, sequence (O60674 whole entry): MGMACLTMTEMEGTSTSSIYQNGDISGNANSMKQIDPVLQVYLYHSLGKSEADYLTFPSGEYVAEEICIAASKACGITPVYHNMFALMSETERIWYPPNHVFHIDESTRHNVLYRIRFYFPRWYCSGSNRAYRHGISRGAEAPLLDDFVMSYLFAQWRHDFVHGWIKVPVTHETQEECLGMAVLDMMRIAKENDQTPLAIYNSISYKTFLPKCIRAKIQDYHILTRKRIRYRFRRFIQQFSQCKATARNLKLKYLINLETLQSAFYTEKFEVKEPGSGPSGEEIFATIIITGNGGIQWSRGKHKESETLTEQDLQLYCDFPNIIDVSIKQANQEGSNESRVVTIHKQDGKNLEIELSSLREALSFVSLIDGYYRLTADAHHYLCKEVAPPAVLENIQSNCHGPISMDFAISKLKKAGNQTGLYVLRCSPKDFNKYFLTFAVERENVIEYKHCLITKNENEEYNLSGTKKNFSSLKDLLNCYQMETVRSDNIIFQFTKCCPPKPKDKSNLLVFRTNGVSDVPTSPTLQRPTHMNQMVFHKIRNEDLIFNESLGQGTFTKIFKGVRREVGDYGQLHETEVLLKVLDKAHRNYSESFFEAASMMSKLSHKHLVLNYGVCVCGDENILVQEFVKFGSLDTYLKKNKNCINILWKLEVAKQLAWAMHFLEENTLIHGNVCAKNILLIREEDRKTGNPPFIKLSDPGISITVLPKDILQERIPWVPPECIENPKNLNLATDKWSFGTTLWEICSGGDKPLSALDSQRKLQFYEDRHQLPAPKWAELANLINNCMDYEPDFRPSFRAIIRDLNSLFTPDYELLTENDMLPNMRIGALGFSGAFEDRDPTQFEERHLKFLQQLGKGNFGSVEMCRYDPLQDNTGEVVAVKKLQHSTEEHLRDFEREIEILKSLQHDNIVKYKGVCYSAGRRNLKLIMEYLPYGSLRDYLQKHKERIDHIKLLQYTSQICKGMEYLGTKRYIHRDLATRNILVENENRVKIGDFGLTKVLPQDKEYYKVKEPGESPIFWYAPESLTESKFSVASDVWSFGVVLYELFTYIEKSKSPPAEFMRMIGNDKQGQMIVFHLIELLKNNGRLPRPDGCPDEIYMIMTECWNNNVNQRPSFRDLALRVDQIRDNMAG

`C=CC(=O)N(C)c1cc(Nc2ncc(Cl)c(NCCCNC(=O)c3ccc(C#N)cc3)n2)ccc1F` [Example 7, N-(3-(5-chloro-2-(4-fluoro-3-(N-methylacrylamido)phenylamino)pyrimidinyl-4-amino)propyl)-4-cyano-benzamide]: in experiment [1], the “JAK2 RV (ratio between the inhibitory rate of the test compound and that of Xeljanz)” value is recorded as 0.08; the inhibition at 0.03 µM amounted to 5%. Further, in experiment [2], the “JAK1 RV (ratio between the inhibitory rate of the test compound and that of Xeljanz)” value is 0.58; the inhibition at 0.3 µM turned out to be 56%. Besides, the pIC50 (commonly the negative decadic logarithm of the IC50, by convention in mol/L) in experiment [3] is 6.50. In experiment [4], this compound gave a pIC50 of 6.97. Besides, the pIC50 in experiment [5] was 6.98.
Regarding `C=CC(=O)N(C)c1cc(Nc2ncc(Cl)c(NCCCNC(=O)c3ccc(C(F)(F)F)cc3)n2)ccc1F` [Example 22, N-(3-(5-chloro-2-(4-fluoro-3-(N-methylacrylamido)phenylamino)pyrimidinyl-4-amino)propyl)-4-trifluoromethylbenzamide], the inhibition at 0.03 µM in experiment [1] came out at 0%. The “JAK1 RV (ratio between the inhibitory rate of the test compound and that of Xeljanz)” value in experiment [2] is recorded as 0.33. In addition, the inhibition at 0.3 µM in experiment [2] worked out at 18%. Further, the results for the pIC50 in experiment [3], in experiment [4] and in experiment [5] were < 5.00, < 5.00 and 6.55, respectively.
Turning to `C=CC(=O)N(C)c1cc(Nc2ncc(Cl)c(NCCCNC(=O)c3ccc(F)cc3)n2)ccc1F` [Example 23, N-(3-(5-chloro-2-(4-fluoro-3-(N-methylacrylamido)phenylamino)pyrimidinyl-4-amino)propyl)-4-fluorobenzamide], the inhibition at 0.03 µM in experiment [1] turned out to be 0%. The “JAK1 RV (ratio between the inhibitory rate of the test compound and that of Xeljanz)” value in experiment [2] turned out to be 0.35. Moreover, in experiment [2], the inhibition at 0.3 µM came to 19%. Moreover, the pIC50 was < 5.00 in experiment [3], 7.38 in experiment [4] and 6.76 in experiment [5].

(Values after patent publication US10011571B2, “Preparation method for aromatic heterocyclic compound used as selective JAK3 and/or JAK1 kinase inhibitor and application of aromatic heterocyclic compound” (SHENZHEN CHIPSCREEN BIOSCIENCES, LTD., priority 2014, dated 2018).)
